The record followed here is publication PMC3929365, “Benzimidazoisoquinolines: A New Class of Rapidly Metabolized Aryl Hydrocarbon Receptor (AhR) Ligands that Induce AhR-Dependent Tregs and Prevent Murine Graft-Versus-Host Disease” (PLoS ONE, 2014).

For one series, the system named is GVHD. Nature of the series: Graft-versus-host disease (GVHD) model, 15 days. The format is in vivo. The following applies: for GVHD pathology (clinical pathology score): 10 mg/kg then 2 mg/kg/day, day 15. As to the method: Splenocytes and lymphocytes were harvested from C57Bl/6 mice. In some experiments, T cells were purified by negative selection using a Pan-T kit (Miltenyi Biotec) and stained with 2 µM carboxyfluorescein succinimidyl ester (CFSE) (Life Technologies). At least 2×10^7 purified T cells or approximately 1×10^8 pooled splenocytes and lymphocytes were injected i.v. into B6D2F1 host mice to initiate the GVH response. GVHD pathology was assessed on a scale of 0 to 3 (0 = normal, 1 = moderate morbidity, 2 = severe morbidity, 3 = death) according to the following five criteria: weight-loss, posture, activity, fur texture and death and reported as a Clinical GVHD Score.
Host mice were treated daily with vehicle, 10-Cl-BBQ or BBQ analogues by i.p. injection. The vehicle consisted of a mixture of 6.7% anisole and peanut oil. Mice treated with a single i.p. dose of 15 µg TCDD/kg body weight in the same vehicle were used as positive controls.
Figure 4 10-Cl-BBQ suppresses GVHD in an AhR-dependent manner. A) B6D2F1 host mice were injected with wild-type (WT) or AhR-deficient (AhR^−/−) splenocytes to initiate the GVH response; mice were given 10-Cl-BBQ or vehicle treatments daily for 15 days. A single loading dose of 10 mg/kg 10-Cl-BBQ was given at the time of donor cell injection and a maintenance dose of 2 mg/kg was given every day thereafter until the end of the experiment. The progression of GVHD was monitored and a clinical pathology score as defined in Methods was calculated. GVHD was suppressed by 10-Cl-BBQ only if the donor cells expressed AhR. In a separate study, B6D2F1 host mice in groups of 6 were injected with splenocytes from C57Bl/6 mice to initiate the GVH response, and treated with 10-Cl-BBQ or vehicle daily for 15 days as in (A). TCDD (15 µg/kg) was given to an additional group of 6 mice on day 0 as a positive control. […] The donor cells were identified in the host spleen as the H-2D^d negative population.* = p<0.05 vs vehicle control. TEXT PRINTED IN THE PICTURE: (C) TCDD: 17 | (C) 10-Cl-BBQ: 11 | (E) TCDD: 29 | (E) 10-Cl-BBQ: 35 DOUBTS OF THE COPYIST ABOUT THIS PICTURE: Panels C and E: the numbers inside the flow cytometry plots are printed without any measure or unit, so they are copied as bare numbers (plot axes: CD44 vs CD45RB in C, CD19 vs H-2D^d in E). / The Vehicle control plots also print numbers (C: 36; E: 2). They are not listed in lines because Vehicle is a control, not a substance.

The next series relates to Foxp3. As to the kind of experiment: Lymph node gene expression (RT-qPCR) during the GVH response. It is filed as in vivo, B6D2F1 host mice. As to conditions: any dose (0.4, 2 or 10 mg/kg/day), lymph nodes, 48 h. The protocol:
RNA was isolated from lymph nodes of B6D2F1 host mice with the RNeasy Mini Kit (Qiagen). cDNA was prepared from at least 1 µg RNA in a 2-step reaction using the ReactionReady First Strand cDNA synthesis kit (SA Biosciences) according to the manufacturer’s instructions and Superscript III reverse-transcriptase (Life Technologies). The qPCR reaction was carried out on an ABI PRISM 7500 Real-Time PCR system (Applied Biosystems). The reaction mixture consisted of SYBR Green/ROX qPCR Master Mix (SA Bioscience), 2–10 ng-RNA equivalent cDNA and 1 µl of the gene-specific commercial primer sets (SA Biosciences). The following conditions were used: 10 min at 95°C (1 cycle), 15 s at 95°C and 1 min at 60°C (40 cycles). […] The raw data was normalized to Actb and the fold-change was calculated by the ΔΔCt method using vehicle-treated sample values as the control.
Figure 3 10-Cl-BBQ induces an AhR-dependent Treg phenotype 48 h after initiating the GVH response. […] E) In the same mice as in D, lymph nodes were harvested and analyzed for expression of genes that were previously shown to increase under the same GVH conditions with TCDD treatment (13). […] Changes in gene expression were calculated relative to the β-actin gene, and the fold-induction was calculated by the ΔΔCt method using the vehicle-treated samples as a control. * = p<0.05 relative to vehicle treatment. […]

Regarding `O=c1c2cccc3cccc(c32)c2nc3ccc(Cl)cc3n12` [10-Cl-BBQ, 10-chloro-7H-benzimidazo[2,1-a]benzo[de]isoquinolin-7-one], the “GVHD pathology (clinical pathology score)” value in the series on GVHD (AhR-deficient donor cells) is given as “not affected”; in the series on GVHD (AhR-wild type donor cells) it was “significantly reduced”. The overt toxicity entry with GVHD (daily treatment during the GVH response) is on record as “without overt toxicity”. The “engraftment of donor cells in host spleen” value in the series on GVHD (day 15, 10 mg/kg then 2 mg/kg daily) is listed as “significantly reduced the engraftment of donor cells”. The “expression of Foxp3” value with Foxp3 is reported as “did not induce expression of Foxp3”.
